The test system of this test is NL-RLuc virus. Kind of test: Inhibition of HIV replication (NL-RLuc luciferase reporter virus in MT-2 cells). Format: cell-based. The following applies: Human immunodeficiency virus 1, MT2, 120 h. The text has this:
Inhibition of HIV replication: A recombinant NL-RLuc proviral clone was constructed in which a section of the nef gene from NL4-3 was replaced with the Renilla Luciferase gene. This virus is fully infectious and can undergo multiple cycles of replication in cell culture. In addition, the luciferous reporter provides a simple and easy method for quantitating the extent of virus growth and consequently, the antiviral activity of test compounds. The plasmid pNLRLuc contains the proviral NL-Rluc DNA cloned into pUC18 at the PvuII site. The NL-RLuc virus was prepared by transfection of 293T cells with the plasmid pNLRLuc. Transfections were performed using the LipofectAMINE PLUS kit from Invitrogen (Carlsbad, Calif.) according to the manufacturer and the virus generated was titered in MT-2 cells. For susceptibility analyses, the titrated virus was used to infect MT-2 cells in the presence of compound, and after 5 days of incubation, cells were processed and quantitated for virus growth by the amount of expressed luciferase. Assay media was RPMI 1640 supplemented with 10% heat inactivated fetal bovine serum (FBS), 100 units/ml penicillin G/100 units/ml streptomycin, 10 mM HEPES buffer pH 7.55 and 2 mM L-glutamine. The results from at least 2 experiments were used to calculate the EC50 values. Luciferase was quantitated using the Dual Luciferase kit from Promega (Madison, Wis.). Susceptibility of viruses to compounds was determined by incubation in the presence of serial dilutions of the compound. The 50% effective concentration (EC50) was calculated by using the exponential form of the median effect equation where (Fa)=1/[1+(ED50/drug conc.)^m] (Johnson V A, Byington R T. Infectivity Assay. In Techniques in HIV Research. ed. Aldovini A, Walker B D. 71-76. New York: Stockton Press. 1990).

As for `Cc1nc2cc3nn2c(c1[C@H](OC(C)(C)C)C(=O)O)N1CCC(C)(CC1)OC/C=C/CCc1ccn(n1)-c1cccc-3c1` [Example 1, (2S)-tert-Butoxy[(21E)-4,25-dimethyl-24-oxa-1,5,7,8,15,30-hexaazahexacyclo[23.2.2.1^6,9.1^10,14.1^15,18.0^2,7]dotriaconta-2,4,6(32),8,10(31),11,13,16,18(30),21-decaen-3-yl]acetic acid], it took 87 nM to reach a half-maximal effect (EC50).

As for `Cc1nc2cc3nn2c(c1[C@H](OC(C)(C)C)C(=O)O)N1CCC(C)(CC1)OCCCCCc1ccn(n1)-c1cccc-3c1` [Example 2, (2S)-tert-Butoxy[4,25-dimethyl-24-oxa-1,5,7,8,15,30-hexaazahexacyclo[23.2.2.1^6,9.1^10,14.1^15,18.0^2,7]dotriaconta-2,4,6(32),8,10(31),11,13,16,18(30)-nonaen-3-yl]acetic acid], the midpoint of the response, the EC50, lay at 49 nM.

For the compound `Cc1nc2cc3nn2c(c1[C@H](OC(C)(C)C)C(=O)O)N1CCC(C)(CC1)OCCCCCn1ccc(n1)-c1cccc-3c1` [Example 3, (2S)-tert-Butoxy[4,25-dimethyl-24-oxa-1,5,7,8,18,30-hexaazahexacyclo[23.2.2.1^6,9.1^10,14.1^15,18.0^2,7]dotriaconta-2,4,6(32),8,10(31),11,13,15(30),16-nonaen-3-yl]acetic acid], it took 26 nM to reach a half-maximal effect (EC50).

Compound `Cc1nc2cc3nn2c(c1[C@H](OC(C)(C)C)C(=O)O)N1CCC(C)(CC1)OCCCCn1ccc(n1)-c1cccc-3c1` [Example 4, (2S)-tert-butoxy[4,24-dimethyl-23-oxa-1,5,7,8,18,29-hexaazahexacyclo[22.2.2.1^6,9.1^10,14.1^15,18.0^2,7]hentriaconta-2,4,6(31),8,10(30),11,13,15(29),16-nonaen-3-yl]acetic acid] gave an EC50 of 14 nM.

Consider `Cc1cc2n(n1)-c1cccc(c1)-c1cc3nc(C)c([C@H](OC(C)(C)C)C(=O)O)c(n3n1)N1CCC(C)(CCCCCC2)CC1` [Example 5, (2S)-tert-Butoxy[4,17,26-trimethyl-1,5,7,8,15,16-hexaazahexacyclo[24.2.2.1^6,9.1^10,14.0^2,7.0^15,19]dotriaconta-2,4,6(32),8,10(31),11,13,16,18-nonaen-3-yl]acetic acid], for which the midpoint of the response, the EC50, lay at 4 nM.

The compound `Cc1cc2n(n1)-c1cccc(c1)-c1cc3nc(C)c([C@H](OC(C)(C)C)C(=O)O)c(n3n1)N1CCC(C)(CCCCC2)CC1` [Example 6, (2S)-tert-butoxy[4,17,25-trimethyl-1,5,7,8,15,16-hexaazahexacyclo[23.2.2.1^6,9.1^10,14.0^2,7.0^15,19]hentriaconta-2,4,6(31),8,10(30),11,13,16,18-nonaen-3-yl]acetic acid] displayed a concentration for a half-maximal effect (EC50) of 7 nM.

Take `Cc1nc2c(s1)CCCCCCC1(C)CCN(CC1)c1c([C@H](OC(C)(C)C)C(=O)O)c(C)nc3cc(nn13)-c1cccc-2c1` [Example 7, (2S)-tert-Butoxy[4,17,26-trimethyl-18-thia-1,5,7,8,16-pentaazahexacyclo[24.2.2.1^6,9.1^10,14.0^2,7.0^15,19]dotriaconta-2,4,6(32),8,10(31),11,13,15(19),16-nonaen-3-yl]acetic acid]: the EC50 was found to be 7 nM. In other words, the single-digit nanomolar range.

With `Cc1nc2c(s1)CCCCCC1(C)CCN(CC1)c1c([C@H](OC(C)(C)C)C(=O)O)c(C)nc3cc(nn13)-c1cccc-2c1` [Example 8, (2S)-tert-butoxy[4,17,25-trimethyl-18-thia-1,5,7,8,16-pentaazahexacyclo[23.2.2.1^6,9.1^10,14.0^2,7.0^15,19]hentriaconta-2,4,6(31),8,10(30),11,13,15(19),16-nonaen-3-yl]acetic acid], it took 7 nM to reach a half-maximal effect (EC50).

For `Cc1nc2cc3nn2c(c1[C@H](OC(C)(C)C)C(=O)O)N1CCC(C)(CC/C=C/CCc2nc(C)c(C)n2-c2cccc-3c2)CC1` [Example 9, (2S)-tert-Butoxy[4,16,17,26-tetramethyl-1,5,7,8,15,18-hexaazahexacyclo[24.2.2.1^6,9.1^10,14.0^2,7.0^15,19]dotriaconta-2,4,6(32),8,10(31),11,13,16,18,22-decaen-3-yl]acetic acid], the response was half-maximal at 9 nM (EC50).

For `Cc1nc2cc3nn2c(c1[C@H](OC(C)(C)C)C(=O)O)N1CCC(C)(CCCCCCc2nc(C)c(C)n2-c2cccc-3c2)CC1` [Example 10, (2S)-tert-Butoxy[4,16,17,26-tetramethyl-1,5,7,8,15,18-hexaazahexacyclo[24.2.2.1^6,9.1^10,14.0^2,7.0^15,19]dotriaconta-2,4,6(32),8,10(31),11,13,16,18-nonaen-3-yl]acetic acid], a half-maximal response (EC50) required 7 nM.

Usually EC50 stands for the concentration at which the effect is half-maximal.

The record behind these values is patent US9932356B2, “Pyrazolopyrimidine macrocycles as inhibitors of human immunodeficiency virus replication” (priority 2014, dated 2018).
